Results: PubChem BioAssay (NCI)
Values joined by “and” are separate entries in the source; they are usually repeats but may differ in a detail not shown here. Equal values may be shown once.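 48-hour exposure; five concentrations; linearly interpolated endpoints. GI50: concentration for 50% inhibition of growth. Definition used: TGI = concentration required for complete inhibition of growth.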 Where a SMILES comes first, the peptide text is derived from it. The star is where a group is joined. Trt = c1ccc(C(c2ccccc2)(c2ccccc2)*)cc1; Cbz = O=C(OCc1ccccc1)*

Columns and labels:
Assay in all cases: growth of human tumour cells (NCI), 48 h
786-0 renal = system: 786-0 renal
HL-60(TB) leukemia = system: HL-60(TB) leukemia
SF-539 CNS = system: SF-539 CNS
SK-MEL-2 melanoma = system: SK-MEL-2 melanoma
MOLT-4 leukemia = system: MOLT-4 leukemia
HCC-2998 colon = system: HCC-2998 colon
ACHN renal = system: ACHN renal
LOX IMVI melanoma = system: LOX IMVI melanoma
SK-MEL-28 melanoma = system: SK-MEL-28 melanoma
SNB-19 CNS = system: SNB-19 CNS

SMILES	GI50 (786-0 renal)	TGI (786-0 renal)	GI50 (HL-60(TB) leukemia)	TGI (HL-60(TB) leukemia)	GI50 (SF-539 CNS)	TGI (SF-539 CNS)	GI50 (SK-MEL-2 melanoma)	TGI (SK-MEL-2 melanoma)	GI50 (MOLT-4 leukemia)	TGI (MOLT-4 leukemia)	GI50 (HCC-2998 colon)	TGI (HCC-2998 colon)	GI50 (ACHN renal)	TGI (ACHN renal)	GI50 (LOX IMVI melanoma)	TGI (LOX IMVI melanoma)	GI50 (SK-MEL-28 melanoma)	TGI (SK-MEL-28 melanoma)	GI50 (SNB-19 CNS)	TGI (SNB-19 CNS)
O=C(C=C=Nc1ccccc1)C(=O)N=C=Cc1ccccc1	1.75 µM	3.9 µM	1.7 µM	6.98 µM	9.39 µM	23 µM	1.49 µM	8.36 µM	1.14 µM	5.8 µM	4.04 µM	9.49 µM	1.76 µM	4.6 µM	1.93 µM	4.48 µM	1.88 µM	3.85 µM	31.6 µM	> 60.7 µM
O=C(NOCCO)c1cc(CN2OCCCC2=O)c(F)c(F)c1Nc1ccc(I)cc1F	15.7 µM and > 10 µM	> 92.2 µM	< 0.01 µM and 0.00194 µM	> 57 µM	8.61 µM and > 10 µM	66 µM and > 10 µM	< 0.01 µM and 0.00324 µM	–	38.2 µM and > 10 µM	> 100 µM	< 0.0111 µM and 0.00172 µM	–	4.28 µM	> 100 µM	0.112 µM and 0.164 µM	12.2 µM and > 10 µM	< 0.01 µM and 0.00249 µM	0.0712 µM and 0.124 µM	3.68 µM and 1.64 µM	> 100 µM
Cn1cc(C2=C(c3cn(CCCCC(=N)N)c4ccccc34)C(=O)NC2=O)c2ccccc21	> 25 µM	> 25 µM	16.7 µM	> 25 µM	> 21.6 µM	> 25 µM	12.6 µM	> 25 µM	22.1 µM	> 25 µM	> 25 µM	> 25 µM	> 25 µM	> 25 µM	> 25 µM	> 25 µM	> 25 µM	> 25 µM	21.8 µM	> 25 µM
COc1ccc(C(=O)c2cc3c(N)c(C(=O)Nc4cccc(OC)c4)sc3nc2C)cc1	0.713 µM	> 100 µM	0.311 µM	1.52 µM	0.372 µM	2.59 µM	> 100 µM	> 100 µM	0.745 µM	> 100 µM	2.2 µM	> 100 µM	0.853 µM	> 100 µM	0.676 µM	> 100 µM	> 100 µM	> 100 µM	0.513 µM	> 100 µM
Cc1ccc2nc(NC(=O)C(=O)CC(=O)c3cccc4ccccc34)sc2c1	–	39.3 µM	–	> 100 µM	–	61.6 µM	–	> 100 µM	–	> 100 µM	–	> 100 µM	–	> 100 µM	–	> 100 µM	–	> 100 µM	–	> 100 µM
Cc1cc(Nc2nc(-c3ccncc3)nc3ccccc23)n[nH]1	2.98 µM	> 100 µM	10.7 µM	> 100 µM	3.83 µM	> 100 µM	34.3 µM	> 100 µM	33.9 µM	> 100 µM	29.6 µM	> 100 µM	1.06 µM	> 100 µM	2.69 µM	> 100 µM	88.8 µM	> 100 µM	83.1 µM	> 100 µM
Cc1noc(/N=C2\C=C(Nc3onc(C)c3C)C(=O)c3ccccc32)c1C	–	> 100 µM	–	> 100 µM	–	> 100 µM	–	> 100 µM	–	> 100 µM	–	> 100 µM	–	> 100 µM	–	> 100 µM	–	> 100 µM	–	> 100 µM
CN1CCN(c2ccc3nc(-c4ccc(OCCCCN5CCN(CCCCN6C(=O)c7cccc8cccc(c78)C6=O)CC5)cc4)[nH]c3c2)CC1	> 100 µM	> 100 µM	25.1 µM	> 100 µM	33.5 µM	> 100 µM	95.6 µM	> 100 µM	51.1 µM	> 100 µM	> 100 µM	> 100 µM	25.6 µM	64.1 µM	37.3 µM	> 100 µM	19.4 µM	49.9 µM	> 100 µM	> 100 µM
Cc1cc(Br)cc(C)c1NC(=O)C(=O)Nn1c(=S)[nH]c2ccccc2c1=O	–	> 100 µM	–	> 100 µM	–	> 100 µM	–	> 100 µM	–	> 100 µM	–	> 100 µM	–	> 100 µM	–	> 100 µM	–	> 100 µM	–	> 100 µM
COc1cc(/C=N/NC(=O)c2ccccc2Nc2cccc(C(F)(F)F)c2)cc(OC)c1OC	3.22 µM	11.6 µM	2.01 µM	4.73 µM	2.14 µM	5.62 µM	9.63 µM	33.2 µM	3.14 µM	15.3 µM	5.29 µM	15.6 µM	3.3 µM	13.3 µM	4.55 µM	15.4 µM	2.28 µM	8.16 µM	3.85 µM	18.5 µM
CCc1cc(Cc2ccc(C)c(NC(=O)C(=O)C3C(=O)NC(=O)NC3=O)c2CC)cc(C)c1NC(=O)C(=O)C1C(=O)NC(=O)NC1=O	–	> 100 µM	–	> 100 µM	–	> 100 µM	–	> 100 µM	–	> 100 µM	–	> 100 µM	–	> 100 µM	–	> 100 µM	–	> 100 µM	–	> 100 µM
O=C(CCCCCCCCC(=O)N/N=C\c1cc(Cl)ccc1O)N/N=C\c1cc(Cl)ccc1O	0.287 µM	15.5 µM	0.164 µM	0.571 µM	0.339 µM	> 46.8 µM	0.441 µM	18.9 µM	0.222 µM	17.6 µM	3.32 µM	> 100 µM	0.175 µM	> 100 µM	0.149 µM	7.41 µM	2.64 µM	> 100 µM	0.813 µM	> 100 µM
COc1ccc2c(c1)c1c3n2CCNN=C3CCC1	–	> 100 µM	–	> 71.4 µM	–	> 100 µM	–	> 100 µM	–	> 100 µM	–	> 100 µM	–	> 100 µM	–	> 100 µM	–	> 100 µM	–	> 100 µM
O=C(/C=C/c1ccco1)c1ccc(Nc2nc(Nc3ccc(F)cc3)nc(Nc3ccc(F)cc3)n2)cc1	48.8 µM	> 100 µM	17.5 µM	52.9 µM	24.8 µM	63.5 µM	39 µM	> 100 µM	11.9 µM	48.8 µM	36 µM	> 100 µM	> 100 µM	> 100 µM	17.6 µM	45.3 µM	18.3 µM	44.3 µM	20.5 µM	70.8 µM
COc1ccc(C)cc1C1CCC(=O)O1 (stereo not given)	–	> 100 µM	–	> 100 µM	–	> 100 µM	–	> 100 µM	–	> 100 µM	–	> 100 µM	–	> 100 µM	–	> 100 µM	–	> 100 µM	–	> 100 µM
Cc1c(Cl)cccc1NC(=O)c1sc2nc3c(cc2c1N)CCCC3	0.681 µM	> 100 µM	0.305 µM	–	0.328 µM	–	0.46 µM	> 100 µM	0.481 µM	> 100 µM	> 100 µM	> 100 µM	0.785 µM	> 100 µM	0.576 µM	> 100 µM	–	> 100 µM	0.979 µM	> 100 µM
O=S(=O)(O)SCCNCCCCCC1CCCCC1	–	28 µM	–	> 100 µM	–	19.6 µM	–	8.68 µM	–	> 31 µM	–	10.5 µM	–	30.3 µM	–	4.78 µM	–	18.3 µM	–	10.8 µM
COC(=O)C(CSC(c1ccccc1)(c1ccccc1)c1ccccc1)NC(=O)C(CC(N)=O)NC(=O)OCc1ccccc1 (stereo not drawn) (Cbz-Asn-Cys(Trt)-OMe; configuration not given here)	3.44 µM	12.6 µM	2.1 µM	4.39 µM	1.68 µM	5.49 µM	2.12 µM	5.49 µM	2.1 µM	5.2 µM	2.03 µM	4.82 µM	5.11 µM	22.4 µM	1.83 µM	3.51 µM	3.42 µM	15.4 µM	5.22 µM	18.9 µM
O=Cc1ccc(N2CCN(c3ccc(C=O)cc3)CC2)cc1	> 100 µM	> 100 µM	> 100 µM	> 100 µM	> 100 µM	> 100 µM	> 100 µM	> 100 µM	> 100 µM	> 100 µM	60.8 µM	> 100 µM	> 100 µM	> 100 µM	> 100 µM	> 100 µM	> 100 µM	> 100 µM	> 100 µM	> 100 µM
O=C1CCC(=O)c2sccc2N1	–	> 100 µM	–	> 100 µM	–	> 100 µM	–	> 100 µM	–	> 100 µM	–	> 100 µM	–	> 100 µM	–	> 100 µM	–	> 100 µM	–	> 100 µM
Nc1ccn(C2OC(C(OC3OC(CO)C(O)C(N)C3O)C(O)C(O)C(O)C(O)CO)C(N)C(O)C2O)c(=O)n1 (stereo not given)	–	> 100 µM	–	> 100 µM	–	78.6 µM	–	> 100 µM	–	> 100 µM	–	32.9 µM	–	> 100 µM	–	> 100 µM	–	> 100 µM	–	> 100 µM
COc1ccc2c(c1)/C(=N/OC(C)=O)c1c-2cnc2ccccc12	17.8 µM	33.2 µM	19.6 µM	67 µM	41.9 µM	> 100 µM	26.9 µM	64.6 µM	20 µM	92.2 µM	39.1 µM	> 100 µM	20.4 µM	45.4 µM	19 µM	38.6 µM	31.6 µM	77.2 µM	36.6 µM	> 100 µM
O=C(/C=C/C1C(=O)NC(=O)NC1=O)CC(=O)C(=O)Nc1cc(Cl)c(Cl)cc1Cl	–	> 100 µM	–	> 100 µM	–	> 100 µM	–	> 100 µM	–	> 100 µM	–	> 100 µM	–	> 100 µM	–	> 100 µM	–	> 100 µM	–	> 100 µM
O=C1/C(=C\c2ccccc2)C2OCC=C3CN4CCC56c7ccccc7N1C5C2C3CC46 (stereo not given)	9.86 µM	> 100 µM	3.47 µM	20.9 µM	61.9 µM	> 100 µM	3.78 µM	18.4 µM	7.23 µM	> 100 µM	4.93 µM	> 100 µM	7.98 µM	> 100 µM	4.9 µM	49.8 µM	2.61 µM	5.44 µM	> 100 µM	> 100 µM
NC(=O)c1ccc(N(C(N)=O)c2c(F)cccc2F)nc1-c1ccc(F)cc1F	> 100 µM	> 100 µM	> 100 µM	> 100 µM	> 100 µM	> 100 µM	> 100 µM	> 100 µM	> 100 µM	> 100 µM	> 100 µM	> 100 µM	> 100 µM	> 100 µM	> 100 µM	> 100 µM	> 100 µM	> 100 µM	> 100 µM	> 100 µM
O=C(Nc1cccc(C(F)(F)F)c1)c1cc2ccccc2cc1O	2.08 µM	35.5 µM	1.15 µM	12.1 µM	2.25 µM	70.2 µM	2.7 µM	18.7 µM	3.37 µM	> 35.6 µM	3.35 µM	28.8 µM	1.78 µM	> 30.4 µM	1.92 µM	14.3 µM	3.05 µM	> 100 µM	1.75 µM	> 100 µM
Nc1nc(N)c2c(n1)NC(c1sc(Cl)nc1Cl)CC(c1ccc3c(c1)OCO3)=N2 (stereo not given)	5.43 µM	24.8 µM	3.61 µM	13.3 µM	2.22 µM	8.24 µM	5.19 µM	19 µM	5.91 µM	41.9 µM	6.11 µM	20 µM	5.86 µM	26.4 µM	7.02 µM	25.5 µM	7.63 µM	29.2 µM	4.83 µM	48.2 µM
Cc1ccc(-c2n[nH]c(=O)c3noc(-c4ccc(C)cc4)c23)cc1	2.78 µM	24.9 µM	0.31 µM	> 100 µM	0.787 µM	4.14 µM	0.451 µM	9.49 µM	1.95 µM	> 100 µM	3.89 µM	> 100 µM	3.16 µM	73.3 µM	0.677 µM	> 100 µM	10.2 µM	> 100 µM	2.13 µM	42.8 µM
